Columns and labels:
Assay in all cases: relative viability (nuclei count vs DMSO), 5 days (fraction); higher = more cells survive
[1] = compound: CC1=CC=C(C=C1)C(=O)CN2C3=C(CCCC3)SC2=N [Pifithrin_alpha] + Nc1nc2[nH]cc(CCc3ccc(C(=O)N[C@@H](CCC(=O)O)C(=O)O)cc3)c2c(=O)[nH]1 [Pemetrexed] (partner 0.2 µM)
Summary of the method: (§1)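 For relative viability, nuclei counts in treated wells were divided by those in vehicle wells. Lung cancer cell lines had been pin-tool dosed in 1536-well plates the day after seeding and cultured for 5 days, then fixed and stained in one step (final 0.05% Triton X-100, 1% formaldehyde, 1 ug/ml Hoechst) and imaged at 4×. Doses were one drug alone or a fixed anchor-drug dose plus five library-drug doses (not always all listed) in √10 steps, and values are duplicate-plate medians.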

[2] = compound: CNC(=O)c1ccccc1Sc1ccc2c(/C=C/c3ccccn3)n[nH]c2c1 [Axitinib] + CS(=O)(=O)N1CCN(Cc2cc3nc(-c4cccc5[nH]ncc45)nc(N4CCOCC4)c3s2)CC1 [Pictilisib] (partner 1 µM)
Summary of the method: as §1

[3] = compound: CC1=CC=C(C=C1)C(=O)CN2C3=C(CCCC3)SC2=N [Pifithrin_alpha] + O=C(CCCCCCC(=O)Nc1ccccc1)NO [Vorinostat] (partner 1 µM)
Summary of the method: as §1

[4] = compound: CC1=CC=C(C=C1)C(=O)CN2C3=C(CCCC3)SC2=N [Pifithrin_alpha] + COc1cccc2cc(-c3nc([C@H]4CC[C@H](C(=O)O)CC4)n4ncnc(N)c34)[nH]c12 [OSI-027] (partner 0.5 µM)
Summary of the method: as §1

Cell Line | relative viability ([1]; first compound 1 µM) | relative viability ([1]; first compound 3.162 µM) | relative viability ([1]; first compound 10 µM) | relative viability ([1]; first compound 31.62 µM) | relative viability ([1]; first compound 100 µM) | relative viability ([2]; first compound 0.005 µM) | relative viability ([2]; first compound 0.01581 µM) | relative viability ([2]; first compound 0.05 µM) | relative viability ([2]; first compound 0.1581 µM) | relative viability ([2]; first compound 0.5 µM) | relative viability ([3]; first compound 1 µM) | relative viability ([3]; first compound 3.162 µM) | relative viability ([3]; first compound 10 µM) | relative viability ([3]; first compound 31.62 µM) | relative viability ([3]; first compound 100 µM) | relative viability ([4]; first compound 3.162 µM) | relative viability ([4]; first compound 10 µM) | relative viability ([4]; first compound 31.62 µM) | relative viability ([4]; first compound 100 µM) | relative viability ([4]; first compound 1 µM)
NCI-H2085 | 0.945 | 0.819 | 0.888 | 0.835 | 0.713 | 0.457 | 0.467 | 0.441 | 0.507 | 0.373 | 0.648 | 0.737 | 0.71 | 0.616 | 0.623 | 0.781 | 0.473 | 0.505 | 0.398 | –
NCI-H2087 | 0.608 | 0.665 | 0.593 | 0.597 | 0.74 | 0.982 | 0.848 | 0.992 | 0.856 | 0.769 | 0.777 | 0.877 | 0.968 | 0.672 | 0.618 | 0.499 | 0.483 | – | 0.605 | 0.417
NCI-H2126 | 0.448 | 0.656 | 0.625 | 0.56 | 0.643 | 0.457 | 0.475 | 0.504 | 0.522 | 0.499 | 0.433 | 0.719 | 0.738 | 0.716 | 0.763 | 0.671 | 0.594 | 0.658 | 0.563 | –
NCI-H2170 | 0.279 | 0.296 | 0.3 | 0.234 | 0.255 | 0.316 | 0.268 | 0.327 | 0.305 | 0.259 | 0.791 | 0.873 | 0.837 | 0.681 | 0.842 | 0.673 | 0.7 | 0.556 | 0.558 | 0.729
NCI-H2228 | 0.406 | 0.416 | 0.335 | 0.252 | 0.298 | 0.472 | 0.391 | 0.416 | 0.486 | 0.622 | 0.831 | 0.663 | 0.721 | 0.387 | 0.374 | 0.574 | 0.526 | 0.392 | 0.283 | 0.589
NCI-H2347 | 0.406 | 0.416 | 0.441 | 0.485 | 0.447 | 0.605 | 0.584 | 0.876 | 0.855 | 0.783 | 0.541 | 0.533 | 0.685 | 0.459 | 0.536 | 0.467 | 0.431 | 0.328 | 0.367 | 0.467
NCI-H2405 | – | 0.86 | 0.957 | 0.802 | 0.971 | 0.422 | 0.534 | 0.658 | 0.465 | 0.383 | – | 0.931 | 0.743 | 0.734 | 0.785 | 0.639 | 0.583 | 0.58 | 0.579 | 0.494
NCI-H3122 | 0.224 | 0.198 | 0.184 | 0.166 | 0.203 | 0.579 | 0.592 | 0.627 | 0.594 | 0.598 | 0.878 | 0.978 | 1.03 | 0.828 | 0.898 | 1.26 | 1.01 | – | 0.786 | 1
PC-3 [JPC-3] | – | 1.08 | – | 0.769 | 1.04 | 0.729 | – | 0.672 | 0.715 | 0.853 | – | 0.61 | – | 0.609 | 0.639 | 0.747 | 0.574 | 0.545 | 0.618 | 0.676
